In patent publication US12171230B2, “Herbicidal compositions” (Bayer Aktiengesellschaft, priority 2018, dated 2024):

Tests used:
Format in all cases: in vivo
[1] = system: Lolium rigidum (resistant biotype); test: Post-emergence herbicidal action against Lolium rigidum (resistant biotype)
Description: (§1) The following abbreviations are used in the description and the tables that follow: • g of a.i./ha=grams of active substance (active ingredient) (=100% active compound) per hectare; • The sum total of the effects of the individual applications is reported under E^A; • expected values according to Colby are each reported under E^C.
(§2) The rating period is reported in days after application (DAT).

Phalaris minor = test: Post-emergence herbicidal action against Phalaris minor
Description: as §1, §2

Matricaria inodora = test: Post-emergence herbicidal action against Matricaria inodora; conditions: post-emergence, 14 DAT
Alopecurus myosuroides = test: Post-emergence herbicidal action against Alopecurus myosuroides
Description: as §1, §2

Bromus sterilis = test: Post-emergence herbicidal action against Bromus sterilis
Description: as §1, §2

Veronica hederifolia = test: Post-emergence herbicidal action against Veronica hederifolia
Description: as §1, §2

Poa annua = test: Post-emergence herbicidal action against Poa annua; conditions: post-emergence
Experimental: (§3) When the observed efficacies exceed the formal sum total of the values of the tests with individual applications, they also exceed the expected value according to Colby, which is calculated using the formula below and is likewise regarded as an indication of synergism (cf. S. R. Colby; in Weeds 15 (1967) p. 20 to 22): E^C=A+B−([…])
(§4) Here: • A=efficacy of the active compound (A) in % at an application rate of a g a.i./ha; • B=efficacy of the active compound (B) in % at an application rate of b g a.i./ha; • E^C=expected value of the effect of the combination (A)+(B) in % at the combined application rate a+b g a.i./ha.
(§5) Seeds or rhizome pieces of mono- and dicotyledonous weeds are placed in sandy loam in pots, covered with soil and grown in a greenhouse under good growth conditions (temperature, air humidity, water supply). Three weeks after sowing, the test plants were treated at the three-leaf stage with the compositions according to the invention. The compositions according to the invention formulated as spray powders or as emulsion concentrates were sprayed onto the green plant parts in various dosages with an application rate of 300 to 800 l/ha of water (equivalent). After the test plants have been left to stand in the greenhouse under optimal growth conditions for about 3 to 4 weeks, the action of the preparations is scored visually in comparison to untreated controls. The compositions according to the invention also have good post-emergence herbicidal activity against a broad spectrum of economically important gramineous and broadleaf weeds.

Lolium rigidum = test: Post-emergence herbicidal action against Lolium rigidum
Description: as §1, §2

Amaranthus palmeri = test: Post-emergence herbicidal action against Amaranthus palmeri; conditions: Amaranthus palmeri, post-emergence, 504 h, read-out: Herbicidal action 21 DAT [%] against Amaranthus palmeri
Experimental: as §3, §4, §5

Pharbitis purpurea = test: Post-emergence herbicidal action against Pharbitis purpurea; conditions: post-emergence
Experimental: as §3, §4, §5

Abutilon theophrasti = test: Post-emergence herbicidal action against Abutilon theophrasti
Description: as §1, §2

Bidens pilosa = test: Post-emergence herbicidal action against Bidens pilosa; conditions: post-emergence, 21 DAT
Experimental: as §3, §4, §5

Digitaria sanguinalis = test: Post-emergence herbicidal action against Digitaria sanguinalis; conditions: 12 g of a.i./ha, post-emergence
Experimental: as §3, §4, §5

Brachiaria platyphylla = test: Post-emergence herbicidal action against Brachiaria platyphylla; conditions: 4 g of a.i./ha, post-emergence, block with (B9.10) Saflufenacil
Experimental: as §3, §4, §5

## COc1c(Cl)ccc(-c2cc(N)c(Cl)c(C(=O)O)n2)c1F [(B5.31) Halauxifen]
[1]; 1 g of a.i./ha
  Herbicidal action in [%] 14 DAT against Lolium rigidum (resistant biotype): 0%
  Herbicidal action in [%] 28 DAT against Lolium rigidum (resistant biotype): 0%
[1]; 3 g of a.i./ha
  Herbicidal action in [%] 14 DAT against Lolium rigidum (resistant biotype): 0%
  Herbicidal action in [%] 28 DAT against Lolium rigidum (resistant biotype): 0%
[1]; 9 g of a.i./ha
  Herbicidal action in [%] 14 DAT against Lolium rigidum (resistant biotype): 5%
  Herbicidal action in [%] 28 DAT against Lolium rigidum (resistant biotype): 10%
Phalaris minor; 1 g of a.i./ha
  Herbicidal action in [%] 14 DAT against Phalaris minor: 0%
  Herbicidal action in [%] 28 DAT against Phalaris minor: 0%
Phalaris minor; 3 g of a.i./ha
  Herbicidal action in [%] 14 DAT against Phalaris minor: 0%
  Herbicidal action in [%] 28 DAT against Phalaris minor: 0%
Phalaris minor; 9 g of a.i./ha
  Herbicidal action in [%] 14 DAT against Phalaris minor: 5%
  Herbicidal action in [%] 28 DAT against Phalaris minor: 5%
Matricaria inodora; 1 g of a.i./ha
  Herbicidal action in [%] 14 DAT against Matricaria inodora: 30%
Matricaria inodora; 3 g of a.i./ha
  Herbicidal action in [%] 14 DAT against Matricaria inodora: 40%
Matricaria inodora; 9 g of a.i./ha
  Herbicidal action in [%] 14 DAT against Matricaria inodora: 60%
Alopecurus myosuroides; 1 g of a.i./ha
  Herbicidal action in [%] 14 DAT against Alopecurus myosuroides: 0%
  Herbicidal action in [%] 28 DAT against Alopecurus myosuroides: 0%
Alopecurus myosuroides; 3 g of a.i./ha
  Herbicidal action in [%] 14 DAT against Alopecurus myosuroides: 0%
  Herbicidal action in [%] 28 DAT against Alopecurus myosuroides: 0%
Alopecurus myosuroides; 9 g of a.i./ha
  Herbicidal action in [%] 14 DAT against Alopecurus myosuroides: 5%
  Herbicidal action in [%] 28 DAT against Alopecurus myosuroides: 0%
Bromus sterilis; 1 g of a.i./ha
  Herbicidal action in [%] 14 DAT against Bromus sterilis: 0%
  Herbicidal action in [%] 28 DAT against Bromus sterilis: 0%
Bromus sterilis; 3 g of a.i./ha
  Herbicidal action in [%] 14 DAT against Bromus sterilis: 10%
  Herbicidal action in [%] 28 DAT against Bromus sterilis: 0%
Bromus sterilis; 9 g of a.i./ha
  Herbicidal action in [%] 14 DAT against Bromus sterilis: 30%
  Herbicidal action in [%] 28 DAT against Bromus sterilis: 20%
Veronica hederifolia; 3 g of a.i./ha
  Herbicidal action in [%] 14 DAT against Veronica hederifolia: 60%
Veronica hederifolia; 9 g of a.i./ha
  Herbicidal action in [%] 14 DAT against Veronica hederifolia: 60%
Poa annua; 1 g of a.i./ha
  Herbicidal action in [%] 14 DAT against Poa annua L.: 0%
  Herbicidal action in [%] 28 DAT against Poa annua L.: 0%
Poa annua; 3 g of a.i./ha
  Herbicidal action in [%] 14 DAT against Poa annua L.: 0%
  Herbicidal action in [%] 28 DAT against Poa annua L.: 0%
Poa annua; 9 g of a.i./ha
  Herbicidal action in [%] 14 DAT against Poa annua L.: 5%
  Herbicidal action in [%] 28 DAT against Poa annua L.: 0%
Lolium rigidum; 1 g of a.i./ha
  Herbicidal action in [%] 14 DAT against Lolium rigidum: 0%
  Herbicidal action in [%] 28 DAT against Lolium rigidum: 0%
Lolium rigidum; 3 g of a.i./ha
  Herbicidal action in [%] 14 DAT against Lolium rigidum: 0%
  Herbicidal action in [%] 28 DAT against Lolium rigidum: 0%
Lolium rigidum; 9 g of a.i./ha
  Herbicidal action in [%] 14 DAT against Lolium rigidum: 5%
  Herbicidal action in [%] 28 DAT against Lolium rigidum: 0%

## C[n+]1ccc(-c2cc[n+](C)cc2)cc1 [(B5.37) Paraquat]
Amaranthus palmeri
  pest or weed control at 5 g/ha: 0%
  pest or weed control at 45 g/ha: 10%
Pharbitis purpurea; 21 DAT, 5 g of a.i./ha
  Herbicidal action 21 DAT [%] against Pharbitis purpurea: 15%
Abutilon theophrasti; 5 g of a.i./ha
  Herbicidal action 21 DAT [%] against Abutilon theophrasti: 0%
Abutilon theophrasti; 45 g of a.i./ha
  Herbicidal action 21 DAT [%] against Abutilon theophrasti: 10%
Bidens pilosa; 5 g of a.i./ha
  Herbicidal action 21 DAT [%] against Bidens pilosa: 0%
Bidens pilosa; 45 g of a.i./ha
  Herbicidal action 21 DAT [%] against Bidens pilosa: 10%

## CC(C)N(C)S(=O)(=O)NC(=O)c1cc(-n2c(=O)cc(C(F)(F)F)n(C)c2=O)c(F)cc1Cl [(B9.10) Saflufenacil, saflufenacil, reference compound]
Amaranthus palmeri; 1.3 g of a.i./ha, block with (B9.10) Saflufenacil
  pest or weed control at 1.3 g/ha: 70%
Pharbitis purpurea; 1.3 g of a.i./ha
  Herbicidal action 21 DAT [%] against Pharbitis purpurea: 30%
Digitaria sanguinalis
  Herbicidal action 21 DAT [%] against Digitaria sanguinalis: 50%
Brachiaria platyphylla
  Herbicidal action 21 DAT [%] against Brachiaria platyphylla: 25%
